The text below walks through data of PubChem BioAssay (NCI).

Each structure is given as a SMILES string. Where “and” joins values, the source holds several entries; their conditions need not be identical. Identical values can stand only once.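 Cells were grown in 96-well plates and exposed to each compound for 48 hours at five concentrations; endpoints were interpolated linearly between bracketing concentrations, or set to the highest concentration if not reached. GI50 marks 50% less growth. The concentration for full growth arrest is given as TGI.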 Bounds are passed on as bounds.

Among the test systems are SF-295 CNS; COLO 205 colon; SN12C renal; NCI-H23 lung; UACC-62 melanoma; OVCAR-3 ovarian; A549 NSCLC; NCI-H226 lung.
Common to all, as to test: NCI-60 cell line screen, 48 h

Regarding `O=[N+]([O-])c1ccc2c(N3CCC(CCCC4CCN(c5ncnc6cc([N+](=O)[O-])ccc56)CC4)CC3)ncnc2c1`, the GI50 with SF-295 CNS was 5.53 µM; with COLO 205 colon, 11.5 µM; in the assay with SN12C renal, > 55.9 µM; in the assay on NCI-H23 lung it was 2.29 µM; with UACC-62 melanoma it was > 33.4 µM; with OVCAR-3 ovarian, 21.6 µM. Further, the values for the GI50 in the assay on A549 NSCLC and with NCI-H226 lung were 38.1 µM and 9.47 µM, respectively. Besides, the TGI in the assay with SF-295 CNS is > 100 µM; in the assay on COLO 205 colon, > 100 µM; in the assay with SN12C renal, > 100 µM; with NCI-H23 lung, > 100 µM; in the assay with UACC-62 melanoma, > 56.9 µM; in the assay on OVCAR-3 ovarian it was > 100 µM. In addition, the TGI in the assay with A549 NSCLC was > 100 µM; in the assay on NCI-H226 lung, > 75.3 µM.

In the case of `COc1ccc(C2=NN(C(=O)c3cc(OC)c(OC)c(OC)c3)C(c3ccc(Cl)cc3)C2)cc1OC` (configuration not stated), the GI50 in the assay on SF-295 CNS was 0.565 µM; in the assay on COLO 205 colon, 2.44 µM; with SN12C renal, 4.89 µM; with NCI-H23 lung, 5.78 µM; with UACC-62 melanoma, 0.549 µM; with OVCAR-3 ovarian it was 0.464 µM. Further, the GI50 in the assay with A549 NSCLC was 4.03 µM. Further, the TGI in the assay with SF-295 CNS was > 100 µM; in the assay on COLO 205 colon, > 100 µM; with SN12C renal it was 56 µM; in the assay on NCI-H23 lung, > 90.1 µM; with UACC-62 melanoma, 15.5 µM; in the assay with OVCAR-3 ovarian it was 1.71 µM. The TGI with A549 NSCLC is > 100 µM; in the assay on NCI-H226 lung, > 57.7 µM.

Regarding `CNC(=O)c1ccc2cc(C3(O)CCn4cncc43)ccc2c1` (configuration not stated), the GI50 in the assay with SF-295 CNS, in the assay with COLO 205 colon, in the assay with SN12C renal, in the assay with NCI-H23 lung, with UACC-62 melanoma and with OVCAR-3 ovarian was > 100 µM in each case. Also, the GI50 in the assay on A549 NSCLC and in the assay on NCI-H226 lung was > 100 µM each time. The TGI with SF-295 CNS, in the assay on COLO 205 colon, in the assay on SN12C renal, in the assay with NCI-H23 lung, in the assay with UACC-62 melanoma and with OVCAR-3 ovarian was > 100 µM throughout. Moreover, the TGI with A549 NSCLC and with NCI-H226 lung was > 100 µM each time.

Consider `CN(C)CCOc1ccc(/C(=C(/CCCl)c2ccccc2)c2ccccc2)cc1`, for which the GI50 is 1.02 µM in the assay on SF-295 CNS; 0.858 µM in the assay with COLO 205 colon; 1.57 µM in the assay with SN12C renal; 1.42 µM with NCI-H23 lung; 0.891 µM in the assay with UACC-62 melanoma; 0.928 µM in the assay on OVCAR-3 ovarian. Moreover, the results for the GI50 in the assay with A549 NSCLC and with NCI-H226 lung were 1.27 µM and 1.34 µM, respectively. In addition, the TGI with SN12C renal is 6.01 µM and 30.3 µM; in the assay with NCI-H23 lung, 5.52 µM and 31.3 µM; in the assay on UACC-62 melanoma, 1.66 µM; with A549 NSCLC, 3.24 µM and 29.9 µM; in the assay with NCI-H226 lung, 13.4 µM and 39.3 µM.

As for `O=C(Nc1ccc(Oc2ccc3nc(NC(=O)c4ccccc4)[nH]c3c2)cc1)Nc1cc(C(F)(F)F)ccc1F`, the GI50 is 0.71 µM with SF-295 CNS; 1.12 µM with COLO 205 colon; 1.75 µM with SN12C renal; 0.93 µM in the assay on NCI-H23 lung; 0.818 µM in the assay with UACC-62 melanoma; 1.04 µM in the assay on OVCAR-3 ovarian. The GI50 in the assay on A549 NSCLC was 0.846 µM; in the assay with NCI-H226 lung it was 0.603 µM. For the same molecule, the TGI in the assay with SF-295 CNS is 4.49 µM; in the assay on COLO 205 colon it was 6.7 µM; in the assay on SN12C renal, > 25 µM; with NCI-H23 lung it was 13 µM; with UACC-62 melanoma, 4.01 µM; in the assay on OVCAR-3 ovarian it was 6.12 µM. The TGI is 13.3 µM in the assay on A549 NSCLC and 3.97 µM in the assay on NCI-H226 lung.

As for `CC(=O)c1cc2c(cc1Nc1c3ccccc3nc3occ(Cl)c13)OCO2`, the GI50 in the assay on SF-295 CNS is 0.0402 µM; in the assay with COLO 205 colon, 0.391 µM; in the assay with SN12C renal, 0.603 µM; in the assay on NCI-H23 lung, 0.238 µM; with UACC-62 melanoma, 0.271 µM; in the assay on OVCAR-3 ovarian it was 0.0725 µM. In addition, the GI50 in the assay on A549 NSCLC is 0.2 µM; in the assay on NCI-H226 lung it was 3.42 µM. Moreover, the TGI was 0.188 µM in the assay on SF-295 CNS; > 37.9 µM in the assay on COLO 205 colon; > 100 µM in the assay on SN12C renal; 2.23 µM with NCI-H23 lung; 0.178 µM with OVCAR-3 ovarian.

With `CC1CCN(CCCCCOc2ccc3oc4cc(Cl)ccc4c(=O)c3c2)CC1`, the GI50 was 6.8 µM with SF-295 CNS; 6.09 µM in the assay with COLO 205 colon; 6.49 µM in the assay with SN12C renal; 7.36 µM in the assay with NCI-H23 lung; 2.24 µM in the assay on UACC-62 melanoma; 7 µM in the assay on OVCAR-3 ovarian. Besides, the GI50 was 7.49 µM in the assay on A549 NSCLC and 9.42 µM in the assay with NCI-H226 lung. The TGI was 13.2 µM with SF-295 CNS; 14.1 µM with COLO 205 colon; 13.1 µM in the assay with SN12C renal; 14.6 µM in the assay with NCI-H23 lung; 7.73 µM with UACC-62 melanoma; 14.2 µM in the assay with OVCAR-3 ovarian. The figures for the TGI with A549 NSCLC and in the assay on NCI-H226 lung were 14.4 µM and 20.2 µM, respectively.

As for `Cc1ccc(Nc2n[nH]c(=S)s2)cc1`, the TGI in the assay with SF-295 CNS, in the assay on COLO 205 colon, in the assay on SN12C renal, in the assay on NCI-H23 lung, in the assay on UACC-62 melanoma and with OVCAR-3 ovarian was > 100 µM in each case. Further, the TGI in the assay with A549 NSCLC and with NCI-H226 lung was > 100 µM in each case.

Regarding `O=C1c2ccccc2C(=Cc2ccccc2)c2ccccc21`, the GI50 was 2.59 µM in the assay with SF-295 CNS; 2.2 µM in the assay on COLO 205 colon; 2.97 µM in the assay with SN12C renal; 2.59 µM with NCI-H23 lung; 1.68 µM with UACC-62 melanoma; 2.56 µM in the assay with OVCAR-3 ovarian. The GI50 was 3.22 µM in the assay with A549 NSCLC and 4.99 µM with NCI-H226 lung. Also, the TGI in the assay with SF-295 CNS amounted to 13.6 µM; with COLO 205 colon, 5.14 µM; in the assay with SN12C renal it was 14.1 µM; in the assay with NCI-H23 lung, 14.1 µM; in the assay on UACC-62 melanoma it was 10.3 µM; in the assay on OVCAR-3 ovarian, 9.11 µM. The figures for the TGI in the assay with A549 NSCLC and in the assay with NCI-H226 lung were 9.97 µM and 20.4 µM, respectively.

With `CN=C(NC#N)NCCSCc1nc[nH]c1C`, the TGI in the assay with SF-295 CNS, with COLO 205 colon, in the assay on SN12C renal, in the assay with NCI-H23 lung, in the assay on UACC-62 melanoma and with OVCAR-3 ovarian was > 100 µM throughout. Also, the TGI in the assay on A549 NSCLC and in the assay with NCI-H226 lung was > 100 µM in each case.
